A value given as a limit tells only on which side of the number the result lay.

`CN(C)CCCOc1ccc(C(=O)NN)cc1F` yielded a melting point of 109 to 111 °C.

Regarding `CN(C)C=Cc1ccc([N+](=O)[O-])c2[nH]ncc12`, the melting point worked out at 255 °C.

The compound `O=C(O)CON=CCCl` gave a melting point of 66 to 68 °C.

`CN(C)C1=Nc2ccccc2C(O)(c2ccccc2)C1(C)C` (configuration not stated) registered a melting point of 170 to 173 °C.

Turning to `Cc1cccc(C(=O)OC2CCCCC2=O)c1` (configuration not stated), the melting point lay within 73 to 74 °C.

For `CN(c1ccc(Cl)cc1)C1CCN(C2CCN(c3ccc(OC[C@@]4(C)Cn5cc([N+](=O)[O-])nc5O4)cc3)CC2)CC1`, the melting point fell in the range of 231 to 232 °C.

`Cc1c(CC(C)(C)C(=O)O)n(Cc2ccc(Cl)cc2)c2ccc(OCc3ccc4ccccc4c3)cc12` showed a melting point of 152 °C.

On to `O=C(O)Cn1c(=O)oc2cc(-c3ccccc3)c(Cl)cc21`, for which the melting point was 200 to 203 °C.

In turn, `COc1ccc2c(c1)C(C(=O)O)c1cccnc1CO2` (configuration not stated) had a melting point of 140 to 141 °C.

`N#CC(C(=O)c1ccc([N+](=O)[O-])cc1)=C1CCCCN1`: the melting point turned out to be 182 °C.

`CNC(=O)[C@@H](C[C@H](O)[C@H](CC1CCCCC1)NC(=O)[C@H](Cc1cscn1)NC(=O)OC(C)(C)C)C(C)C` registered a melting point of 183 to 185 °C.

`CC(=O)c1cccc2c1ncn2-c1cccc([N+](=O)[O-])c1` gave a melting point of 175 to 177 °C.

As to `CC(C)C[C@H](NC(=O)CCCc1ccccc1)C(=O)N[C@@H](Cc1ccccc1)C(=O)CSCc1ccco1`, the melting point is 106 to 108 °C.

The compound `CNC(=O)c1ccccc1Nc1nc(Nc2cc3c(cc2OC)N(C)C(=O)OCC3)ncc1C(F)(F)F` yielded a melting point of 210 to 212 °C.

In turn, `CCn1ncc2c(NCCc3ccccc3)c3ccc(OC)cc3nc21` returned a melting point of 163 to 164 °C.

For the compound `C=CCOc1ccccc1-c1ncc(C(N)=O)c(=O)[nH]1`, the melting point is 202 to 204 °C.

`CC1(C)CCc2c1ccc1c2CCc2cc(O)ccc2-1`: the melting point fell in the range of 152 to 153 °C.

As to `CCOP(=O)(/C=C/c1cn(-c2ccccc2)nc1OCc1ccc(OCc2nc(-c3ccco3)oc2C)c(OC)c1)OCC`, the melting point lay within 60 to 63 °C.

The compound `Cc1cnc(C2=NC(C)(C(C)C)C(=O)N2)c(C(=O)c2ccc(C)s2)c1` (configuration not stated) yielded a melting point of 173 to 175 °C.

For the compound `Cc1nc(-c2ccccc2C(F)(F)F)c(CC(Cl)C(=O)O)o1` (configuration not stated), the melting point lay within 158 to 159 °C.

`O=C(c1ccccc1)c1ccc([N+](=O)[O-])c(C(=O)NCc2ccccc2)c1`: the melting point amounted to 167 °C.

Regarding `COC(=O)C1(CCCN2CCN(c3ccccc3)CC2)Oc2ccccc2OCC1O` (configuration not stated), the melting point was 113 to 115 °C.

Regarding `CCc1ccc2c3c(ccc2n1)OCC(CN1CC=C(c2c[nH]c4ccccc24)CC1)O3` (configuration not stated), the melting point was found to be 190 °C.

In turn, `C[C@H](N)Cn1ncc2ccc3oc(C(=O)NCC4(O)CC4)cc3c21` registered a melting point of 77 to 79 °C.

As for `CC(C)(C)c1ccc(-c2cccc(-c3ccccc3)c2CC(=O)NC(=N)N)cc1`, the melting point lay in the range of 171 to 174 °C.

The compound `CCCCCCCCCCCCCCCCCC(CCCCCCCCCCCCCCCCC)=NO` showed a melting point of 66 to 67 °C.

In turn, `COc1cc2c(cc1OC)C(=O)NC(=O)C2` yielded a melting point of 234 to 238 °C.

Turning to `CCNC(=O)NCC1=C(n2ccccc2=O)c2cc([N+](=O)[O-])ccc2OC1(C)C`, the melting point was found to be 197 °C.

On to `COC(=O)[C@H]1C[C@H](NC(=O)Nc2ccc(I)cc2)c2c(Cl)cc(Cl)cc2N1` (relative stereo), for which the melting point lay in the range of 253 to 255 °C.

Turning to `C=CCN(C(=O)c1ccco1)c1c(C)cccc1C`, the melting point is 68 to 69 °C.

In the case of `Cc1cc(Cl)nc2nc(N3C(=O)c4ccccc4C3CC(=O)N3CCC4(CC3)OCCO4)ccc12` (configuration not stated), the melting point was 259 to 262 °C.

In turn, `CCOC(=O)/C=C/c1ccc(OCCOC)cc1OCc1nc(-c2ccccc2)oc1C` returned a melting point of 109 to 110 °C.

`CCCCc1nc(I)c(C=O)n1Cc1ccc(C(=O)OC)c2ccccc12` had a melting point of 178 to 179 °C.

Take `N#Cc1ccc2nc(C(O)(Cn3cncn3)c3ccc(F)cc3F)sc2c1` (configuration not stated): the melting point lay in the range of 170 to 172 °C.

The compound `OC(CCCCCCCCCCOCc1ccccc1)c1ccc(OCc2ccccc2)c(OCc2ccccc2)c1` (configuration not stated) came in with a melting point of 50 to 52 °C.

`COc1ccc(/C=C/C=C/C(=O)Oc2ccc([N+](=O)[O-])cc2)cc1` showed a melting point of 176 to 177 °C.

With `O=C1CCCc2c1[nH]c1ccc(Cl)cc21`, the melting point turned out to be 226 °C.

The compound `Cc1ccnc2[nH]c(=O)c(CC(=O)N(CCNC(=O)OC(C)(C)C)CC(=O)O)cc12` displayed a melting point of 133 to 136 °C.

With `O=C1SCCN1Cc1ccccc1[N+](=O)[O-]`, the melting point is 92 to 93 °C.

`ONCc1ccccc1Cl`: the melting point was 71 to 73 °C.

In the case of `Cc1ccc(C(=S)c2ccc(F)cc2)cc1`, the melting point was determined as 88 °C.

`C[C@@H](S[C@H]1CC[C@H](/C=C/C=C/c2ccc(C(F)(F)F)cc2)CC1)[C@](O)(Cn1cncn1)c1ccc(F)cc1F` gave a melting point of 74 to 76 °C.

As to `CCCc1c(C(=O)C(C)C)c2ccc(C(N)=O)cc2n1Cc1ccc(Br)cc1Cl`, the melting point lay within 199 to 201 °C.

In turn, `COc1ccc(CCNc2nc(Cl)c3nc(-c4ccco4)oc3n2)cc1` had a melting point of 170 to 171 °C.

`CC(C)c1oc(-c2ccccc2)c(-c2ccc(F)cc2)c1C=CC=O` came in with a melting point of 98 to 100 °C.

`CC(=O)Nc1cc(F)c(OCC(F)F)cc1[N+](=O)[O-]` displayed a melting point of 72 to 74 °C.

`CCOC(=O)c1cnc(Cc2ccc(OC)c(OC)c2)c2cc(OC)c(OC)cc12` showed a melting point of 117 to 119 °C.

In turn, `CC(C)(C)ONC(=O)C(C)(C)CCOc1ccc(C2=NNC(=O)CC2)cc1Cl` showed a melting point of 133 to 135 °C.

On to `CN(O)C(=O)Nc1ccc(S(C)=O)cc1` (configuration not stated), for which the melting point worked out at 198 °C.

In turn, `Cn1c(C(F)(F)F)cc(C#N)c1-c1ccc2ccccc2c1` had a melting point of 134 °C.

The compound `Clc1ccccc1-c1n[nH]cc1Br` yielded a melting point of 80 °C.

`C[Si](C)(C)c1cccc(Cl)c1C(=O)O` yielded a melting point of 129 to 131 °C.

`CN1CCN(Cc2ccc(C(=O)O)cc2)CC1` showed a melting point of 310 to 312 °C.

`CS(=O)(=O)c1ccc(C#CCF)cc1`: the melting point lay within 97 to 99 °C.

For `O=C(O)CN1C(=O)c2cccc3c(Sc4ccccc4C(=O)O)ccc(c23)C1=O`, the melting point fell in the range of 339 to 341 °C.

The compound `COC(=O)c1ccc(Cc2cc3cc(C(F)(F)F)ccc3n2S(=O)(=O)c2ccc(C(C)C)cc2)cc1` showed a melting point of 123 °C.

In turn, `COc1cc(C(C)C)c2c(c1)S(=O)(=O)N(COC(=O)c1sccc1Cl)C2=O` came in with a melting point of 138 to 140 °C.

In turn, `BrCCCCCc1nnnn1C1CCCCC1` returned a melting point of 57 to 59 °C.

The compound `CC1C(C/C=C/c2ccccc2)C(=O)N(Cc2ccccc2)c2ccccc2N1C(=O)CN1C(=O)c2ccccc2C1=O` (configuration not stated) had a melting point of 262 to 264 °C.

Compound `O=c1c2ccc(Cl)cc2[nH]c2c(=O)n(-c3ccc(Cl)cc3Cl)nc(O)c12` had a melting point of 342 to 343 °C.

With `COC(=O)CSCC1Cn2cc(C(=O)NCc3ccc(Cl)cc3)c(=O)c3cc(CN4CCOCC4)cc(c32)O1` (configuration not stated), the melting point lay within 182 to 183 °C.

Compound `NCCCCn1ccnc1-c1ccccc1` yielded a melting point of 82 to 84 °C.

Consider `CCCN[C@H]1CC[C@H](Oc2ccc3[nH]ncc3c2SC)CC1`, for which the melting point fell in the range of 168 to 169 °C.

`CC1(C)SC(=S)N(c2ccccn2)C1O` (configuration not stated) came in with a melting point of 80 °C.

The compound `COc1cccc2[nH]cc(/C(C#N)=C/c3cccnc3)c12` came in with a melting point of 177 °C.

`CC1Oc2ccc(CN3CC=C(c4ccccc4)CC3)cc2NC1=O` (configuration not stated) yielded a melting point of 248 to 255 °C.

`COc1cc2c(Nc3ccc(Sc4nccn4C)c(Cl)c3)c(C#N)cnc2cc1-c1csc(CN2CCN(C)CC2)c1` returned a melting point of 162 to 164 °C.

Take `CC(=O)NCC1CN(c2cc(F)c(N3CCN(C(=O)COC(=O)c4cccnc4)CC3)c(F)c2)C(=O)O1` (configuration not stated): the melting point fell in the range of 213 to 214 °C.

As to `CN(C)C=C(C1=NCCCS1)[N+](=O)[O-]`, the melting point lay in the range of 168 to 170 °C.

As to `CCN(c1nc(C)cc(-c2ccccc2C(F)(F)F)n1)c1c(Br)cc(N(C)C)cc1OC`, the melting point fell in the range of 157 to 158 °C.

`COc1cc(Nc2c(C#N)cnc3cc4cc(OC)c(OC)cc4cc23)c(C)cc1Cl`: the melting point fell in the range of 171 to 173 °C.

Take `COc1ccc(Cl)cc1C(=O)CCCCCl`: the melting point lay in the range of 52 to 54 °C.

`CCOC(=O)C1=C(C)NC(C)=C(C(=O)OC)C1c1cccc(NC(C)=O)c1` (configuration not stated) came in with a melting point of 197 to 199 °C.

Take `CC(C)(C)OC(=O)NCc1cccc(Cn2ccc(OCc3ccc(F)cc3)c(Br)c2=O)c1`: the melting point was in the range of 136 to 138 °C.

On to `COC(=O)CCCCCCCCCCCCCCCCCCCCCc1c(C)cc(OC)c(OC)c1O`, for which the melting point is 71 to 72.5 °C.

Take `CC(C)CCn1cc([N+](=O)[O-])cc1C(=O)Nc1cc(C(=O)NCCCN2CCOCC2)n(C)c1`: the melting point fell in the range of 155 to 158 °C.

`FC1(F)Oc2cccc(-c3n[nH]cc3I)c2O1` displayed a melting point of 142 °C.

`O=c1oc(-c2cccc(Cl)c2)cc(O)c1SCc1ccccc1` came in with a melting point of 136 to 137 °C.

For `CCCCCCCCCCCCCCCCOc1ccc(OCC(=O)NCCc2ccccn2)cc1`, the melting point fell in the range of 74 to 75 °C.

For `CCn1c(C(F)(F)F)n[nH]c1=S`, the melting point came out at 93 °C.

`COc1ccc(CNC(=O)C23CC4CC(CC(C4)C2)C3)cc1` showed a melting point of 91 to 94 °C.

`Cc1c(-c2cncn2C)[nH]c(=O)c2c1ccc1nc(Nc3c(Cl)cccc3Cl)n(C)c12` displayed a melting point of more than 300 °C.

As to `Cn1c(COc2ccc(CC3SC(=O)NC3=O)cc2)nc2ccc(Oc3cccc(NC(=O)Nc4ccc(C(F)(F)F)cc4)c3)cc21` (configuration not stated), the melting point lay in the range of 192 to 194 °C.

As to `CC1(C(=O)O)CCCc2c(-c3ccc(Cl)cc3)noc2C1` (configuration not stated), the melting point was in the range of 232 to 235 °C.

With `CC(C)(C)OC(=O)NCCC(=O)NCc1cccc2c1CN(C1CCC(=O)NC1=O)C2=O` (configuration not stated), the melting point lay within 203 to 205 °C.

On to `O=C(Nc1ccc(Oc2ccccc2)cc1)N1CCN(c2cc(C(F)(F)F)nc3ccccc23)CC1`, for which the melting point was 203 to 204 °C.

In turn, `CCOC(=O)Nc1ccc(-c2c[nH]c(=O)cn2)cc1` had a melting point of 260 to 262 °C.

These data come from a melting point compilation (Tetko et al.; mined from patent text by program, amines drawn as free bases though some values may be those of a salt).
